Measurements as given in article PMC5845353, “The selective cathepsin K inhibitor MIV-711 attenuates joint pathology in experimental animal models of osteoarthritis” (Journal of Translational Medicine, 2018).
Values joined by “and” are separate entries in the source; they are usually repeats but may differ in a detail not shown here. Equal entries are not always repeated.

Test system: dogs subjected to partial medial meniscectomy
Assay: Dog partial medial meniscectomy study, microscopic cartilage degeneration scores
Assay type: in vivo
Design: key to Total Joint CD Score: sum of tibial and femoral degeneration scores (1=minimal…3=moderate)
Source text: The proximal end of the left tibia and the distal end of the left femur were removed using a hacksaw and collected into 10% neutral buffered formalin. Bones were allowed to fix for 5 days and then the tissues were placed in formic acid decalcifier (5-20%). After decalcification, the surface area at risk for lesion development of the tibia (medial and lateral plateaus) and femur (medial and lateral condyles) was divided into 3 slabs (anterior to posterior) approximately 2-4 mm thick for processing, embedding, sectioning (8 µm) and staining (Toluidine Blue). The lesions are in reasonably consistent locations in all animals, therefore, the same surfaces and area were consistently embedded for all animals. Blocks containing tissue were numbered 1-3 with 1 being the most anterior piece. In all cases, the anterior aspect of the tissue was embedded down in the cassette for sectioning.
Compartmentalized lesions on medial tibia and medial femur (cartilage degeneration and osteophytes) were scored for each of the 3 (anterior to posterior) sections using the following system:
1=minimal degeneration, chondrocyte and proteoglycan loss with or without fibrillation involving the superficial zone or extending into the upper 10% of the cartilage thickness or at least 5% but not more than 10% overall total proteoglycan and cell loss in the zone if lesion is focal and deeper in some areas. Deeper and more extensive proteoglycan loss only without any evidence of chondrocyte loss and collagen damage is also given a score of 1 as this is a minor and reversible change
2=mild degeneration, chondrocyte and proteoglycan loss with fibrillation involving mainly the upper 11-25% of cartilage thickness, fibrillation generally superficial (upper 10%) while chondrocyte and proteoglycan loss extend into approximately 11-25% of the cartilage depth, or 11-25% overall chondrocyte and proteoglycan loss in the zone if lesion is focal and deeper in some areas. Deeper areas of proteoglycan loss only, without chondrocyte loss or collagen disruption (reversible changes) may be present
3=moderate degeneration, chondrocyte and proteoglycan loss with fibrillation extending well into the midzone and generally affecting 1/2 (50%) of the total cartilage thickness, fibrillation/collagen damage generally extends into upper 25% while chondrocyte and proteoglycan loss extend through 50% thickness, or 26-50% overall chondrocyte and proteoglycan loss in the zone if lesion is focal and deeper in some areas. Deeper areas of proteoglycan loss only, without chondrocyte loss or collagen disruption (reversible changes) may be present
4=marked degeneration, chondrocyte and proteoglycan loss with fibrillation extending through the mid zone through 3/4 f the depth (51-75% of cartilage thickness) but without complete (to the tidemark) loss of chondrocytes or proteoglycan, fibrillation/collagen damage generally extend through the mid zone (50% thickness) but deep zone collagen remains intact, or 51-75% overall chondrocyte and proteoglycan loss in the zone if lesion is focal and deeper in some areas. Deeper areas of proteoglycan loss only, without chondrocyte loss or collagen disruption (reversible changes) may be present
5=severe degeneration, chondrocyte and proteoglycan loss to near tidemark (76-100% of depth) with slightly less severe collagen damage or 76-100% overall chondrocyte and proteoglycan loss in the zone.
Each medial tibial plateau and medial femoral condyle anterior to posterior section was further divided visually with an ocular micrometer into fourths and numbered 1,2,3,4 with 1 being the outside and 4 being the inside quadrant. A mean score for the four levels was calculated. In addition, means of the 3 sections for each quadrant were determined in order to convey lesion severity in various axial to abaxial locations. Overall tibial and femoral values were summed for a total joint cartilage degeneration score.

[1] = individual dogs of MIV-711 group
[2] = individual dogs of MIV-711 group, score=depth (1-5), mean of 4 quadrants

For `C#C[C@@H]1CN(C(=O)[C@H](CC(C)C)NC(=O)c2ccc(-c3nc(N4CCN(C)CC4)sc3F)cc2)[C@@H]2C(=O)CO[C@H]12` [MIV-711], the “Femur Cartilage Degeneration Score Level 1” value (MIV-711 group mean) was 0.57, the “Femur Cartilage Degeneration Score Level 2” value (MIV-711 group mean) was 0.65 and the “Femur Cartilage Degeneration Score Level 3” value (MIV-711 group mean) was 0.77. The “Femur Cartilage Degeneration Score Mean” value (MIV-711 group mean) was 0.66, the “Femur Cartilage Degeneration Score Zone 1” value (MIV-711 group mean) was 1.16 and the “Femur Cartilage Degeneration Score Zone 2” value (MIV-711 group mean) was 1.09. The “Femur Cartilage Degeneration Score Zone 3” value (MIV-711 group mean) was 0.33, the “Femur Cartilage Degeneration Score Zone 4” value (MIV-711 group mean) was 0.07 and the “Tibia Cartilage Degeneration Score Level 1” value (MIV-711 group mean) was 0.60. For the same molecule, the “Tibia Cartilage Degeneration Score Level 2” value (MIV-711 group mean) was 1.22, the “Tibia Cartilage Degeneration Score Level 3” value (MIV-711 group mean) was 0.92 and the “Tibia Cartilage Degeneration Score Mean” value (MIV-711 group mean) was 0.91. The “Tibia Cartilage Degeneration Score Zone 1” value (MIV-711 group mean) was 0.33, the “Tibia Cartilage Degeneration Score Zone 2” value (MIV-711 group mean) was 1.76 and the “Tibia Cartilage Degeneration Score Zone 3” value (MIV-711 group mean) was 1.02. The “Tibia Cartilage Degeneration Score Zone 4” value (MIV-711 group mean) was 0.53, the “Total Joint CD Score” value (MIV-711 group mean) was 1.57 and the “% inhibition, Femur Cartilage Degeneration Score Level 1” value (MIV-711 group vs vehicle) was 13%. For the same molecule, the “% inhibition, Femur Cartilage Degeneration Score Level 2” value (MIV-711 group vs vehicle) was 0%, the “% inhibition, Femur Cartilage Degeneration Score Level 3” value (MIV-711 group vs vehicle) was 8% and the “% inhibition, Femur Cartilage Degeneration Score Mean” value (MIV-711 group vs vehicle) was 7%. The “% inhibition, Femur Cartilage Degeneration Score Zone 1” value (MIV-711 group vs vehicle) was -6%, the “% inhibition, Femur Cartilage Degeneration Score Zone 2” value (MIV-711 group vs vehicle) was 6% and the “% inhibition, Femur Cartilage Degeneration Score Zone 3” value (MIV-711 group vs vehicle) was 32%. The “% inhibition, Femur Cartilage Degeneration Score Zone 4” value (MIV-711 group vs vehicle) was 40%, the “% inhibition, Tibia Cartilage Degeneration Score Level 1” value (MIV-711 group vs vehicle) was 41% and the “% inhibition, Tibia Cartilage Degeneration Score Level 2” value (MIV-711 group vs vehicle) was 9%. For the same molecule, the “% inhibition, Tibia Cartilage Degeneration Score Level 3” value (MIV-711 group vs vehicle) was -38%, the “% inhibition, Tibia Cartilage Degeneration Score Mean” value (MIV-711 group vs vehicle) was 9% and the “% inhibition, Tibia Cartilage Degeneration Score Zone 1” value (MIV-711 group vs vehicle) was 48%. The “% inhibition, Tibia Cartilage Degeneration Score Zone 2” value (MIV-711 group vs vehicle) was 0%, the “% inhibition, Tibia Cartilage Degeneration Score Zone 3” value (MIV-711 group vs vehicle) was 8% and the “% inhibition, Tibia Cartilage Degeneration Score Zone 4” value (MIV-711 group vs vehicle) was -4%. The “% inhibition, Total Joint CD Score” value (MIV-711 group vs vehicle) was 8%, the “decrease in cartilage degeneration scores in level 1 (anterior) of the tibia” value (dog, 30 µmol/kg vs vehicle, statistically significant) was 41% and the “Femur Cartilage Degeneration Score Zone 1” value [1] was 1.00 and 0.33 and 2.00 and 1.33 and 0.67. The “Femur Cartilage Degeneration Score Zone 2” value [1] was 1.33 and 1.67 and 0.00 and 2.00 and 1.00 and 0.33 and 2.33, the “Femur Cartilage Degeneration Score Zone 3” value [1] was 0.33 and 0.00 and 1.33 and 1.67 and the “Femur Cartilage Degeneration Score Zone 4” value [1] was 0.00 and 0.33. The “Tibia Cartilage Degeneration Score Zone 1” value [1] was 0.33 and 0.67 and 0.00 and 1.00, the “Tibia Cartilage Degeneration Score Zone 2” value [1] was 1.67 and 1.33 and 2.00 and 2.33 and the “Tibia Cartilage Degeneration Score Zone 3” value [1] was 1.33 and 1.00 and 1.67 and 0.67 and 0.33. The “Tibia Cartilage Degeneration Score Zone 4” value [1] was 0.67 and 0.33 and 0.00 and 1.00, the “Total Joint CD Score” value [1] was 1.08 and 1.67 and 1.75 and 0.75 and 2.42 and 1.33 and 1.50 and 1.25 and 2.00 and 1.83 and 3.00 and the “Femur Cartilage Degeneration Score Level 1” value [2] was 0.50 and 0.25 and 0.75 and 1.00. The “Femur Cartilage Degeneration Score Level 2” value [2] was 0.50 and 1.00 and 0.00 and 1.75 and 0.75 and 0.25, the “Femur Cartilage Degeneration Score Level 3” value [2] was 0.50 and 1.00 and 0.00 and 1.50 and 0.25 and 1.25 and 0.75 and 2.00 and the “Femur Cartilage Degeneration Score Mean” value [2] was 0.50 and 0.67 and 0.83 and 0.08 and 1.33 and 0.58 and 0.33 and 0.25 and 1.58. For the same molecule, the “Tibia Cartilage Degeneration Score Level 1” value [2] was 0.25 and 0.00 and 0.50 and 1.25 and 0.75 and 1.00 and 1.50, the “Tibia Cartilage Degeneration Score Level 2” value [2] was 1.00 and 1.25 and 1.75 and 1.50 and 0.50 and the “Tibia Cartilage Degeneration Score Level 3” value [2] was 0.50 and 1.50 and 1.00 and 1.25 and 0.75 and 0.00. For the same molecule, the “Tibia Cartilage Degeneration Score Mean” value [2] was 0.58 and 1.00 and 0.92 and 0.67 and 1.08 and 0.75 and 1.17 and 0.42 and 1.42.
